pEC50: −log10 of the molar value. Like-named read-outs stand apart in the source and are kept apart here.
Tests used:
HSV-1 = experiment: Plaque reduction assay for herpes simplex viruses in Vero cells; assay type: cell-based, herpes simplex virus type 1; conditions: Table 2, read-out: EC-50 HSV-1
Protocol: Cell culture assays for heroes simplex viruses. Mycoplasma-free Vero cells, obtained from Flow Laboratory (McLean, Va.), were used for the plaque assays. The methodologies for the plaque reduction and cytotoxicity assays have been previously described (Schinazi et al, Antimicrob. Agents Chemother. 22, 499-507, 1982). Median-effect method. Dose-effect relationships were analyzed by the median-effect equation (Chou et al, Adv. Enz. Regul. 22, 27-55, 1984). The slope (m) and median effective and inhibitory concentration (EC50 and IC50) values were obtained by using a computer program developed by Chou and Chou (Chou et al, Elsevier-Biosoft, Elsevier Science Publishers, Cambridge, U.K., 1985).

Friend, Spleen (EY-10) = experiment: UV/XC assay for murine retroviruses in SC-1 cells; assay type: cell-based, murine retrovirus; conditions: Table 2, read-out: EC-50 Friend, Spleen (EY-10)
Protocol: UV/XC Assay for Murine Retroviruses Cells. Mouse embryo fibroblasts (SC-1) and XC cells were obtained from the American Type Culture Collection, Rockville, Md. The XC cell line was derived from a transplantable tumor induced in newborn White-Weston rats by the intramuscular injection of the Prague strain of Rous sarcoma virus. […] The cells were maintained in Eagle's minimum essential medium with Hanks balanced salt solution, supplemented with penicillin (100 U/ml), streptomycin (100 μg/ml), sodium bicarbonate (24 mM), Hepes (25 mM), and either 2 (maintenance) or 10 (growth) percent inactivated newborn or fetal calf serum.
Virus quantitation by UV-XC assay. The XC test (Rowe et al, Virology 42, 1136-1139, 1970) is a plaque-type of assay which tests for the presence and titer of B- and N-tropic murine leukemia viruses. Because these viruses produce no overt signs of infection of SC-1 mouse cells, it is necessary to overlay the virus producing culture with an indicator cell line, XC. The number of syncytia that are produced is a direct measure of the virus titer in FFU.
Six-well plates were seeded with 1×10^5 SC-1 mouse cells on the first day. On the following day the medium was removed and the inoculum (0.2 ml) was added in medium containing polybrene (4 μg/ml). For determining the antiviral activity of the compounds in culture, the virus dilution selected produced in untreated cultures about 80 foci per well. After 1 hour, the virus was removed and various concentrations of the drug were added. The plates were replenished with medium on the third and fifth days. The medium was removed on the eighth day and the cells exposed to UV irradiation (60 erg/mm^2 per sec) for 30 seconds. Medium containing 10^6 XC cells was then added to each plate. On the eleventh day, the plates were fixed with 10% buffered Formalin and stained with crystal violet. Comparison of the number of foci to those found in virus-infected cells receiving no drug allowed determination of whether a drug at a particular concentration was effective. Control cells without virus but receiving the drug provided an estimate of the drug's toxic effects as quantitated by using trypan blue staining.

[1] = tested on: human granulocyte-macrophage precursor cells; assay type: cell-based
Source text: Preparation of Cells. Human bone marrow cells were collected by aspiration from the posterior iliac crest of normal healthy volunteers, treated with heparin and the mononuclear population separated by Ficoll-Hypaque gradient centrifugation. Cells were washed twice in Hanks balanced salt solution, counted with a hemacytometer and their viability was >98% as assessed by trypan blue exclusion.
Assay of Colony-Forming Unit Granulocyte-Macrophage (CFU-GM) for Drug Cytotoxicity. The culture assay for CFU-GM was performed using a bilayer soft-agar method as recently described (Sommadossi et al, Antimicrob. Agents Chemother. 31, 452-454, 1987). McCoy 5A nutrient medium supplemented with 15% dialyzed fetal bovine serum (heat inactivated at 56° C. for 30 min.) (Gibco Laboratories, Grand Island, N.Y.) was used in all experiments. This medium was completely lacking in thymidine and uridine. Cells were cloned in 0.3% agar in the presence of increasing concentrations of the modulating compound or in medium alone (control). After 14 days of incubation at 37° C. in a humidified atmosphere of 5% CO2 in air, colonies (≧50 cells) were counted using an inverted microscope.
The toxicities of a variety of polyoxometalates with respect to human bone marrow cells (human granulocyte-macrophage precursor cells) were assessed.

[2] = molecular target: T1, HIV-1 reverse transcriptase (Human immunodeficiency virus type 1 group M subtype B, UniProt P04585); experiment: Evaluation of compounds on purified retroviral RT (cell-free, virion-derived); assay type: biochemical; conditions: Table 2; read-out: EC-50 Cell-Free RT (virion-derived)
T1 construct: HIV-1 RT was isolated from detergent disrupted virions; made in house; host or cells: virions pelleted from culture fluid of HIV-1-infected PHA-stimulated human PBMC; DEAE-cellulose and phosphocellulose chromatography
Procedure, shortened: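 Enzyme was HIV-1 RT partially purified from virions of infected PHA-stimulated PBMC by DEAE-cellulose and phosphocellulose chromatography. Reactions at pH 8.0 with 2 mM MgCl2, 50 mM KCl, 3 μg/ml (rA)·(dT)12-18 template and 1 μM [3H]TTP, 60 min at 37 °C. IC50 from median-effect analysis.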

Compound | pEC50 (HSV-1; Human alphaherpesvirus 1, Vero) | pEC50 (Friend, Spleen (EY-10); unidentified retrovirus, SC-1) | toxicity to human bone marrow cells (order of toxicity, FIG. 6) ([1]; human, 14 days) | pEC50 [2] | pEC50 (HSV-1) | pEC50 (Friend, Spleen (EY-10)) | toxicity to human bone marrow cells (order of toxicity, FIG. 6) [1]
Cc1cn([C@H]2C[C@H](N=[N+]=[N-])[C@@H](CO)O2)c(=O)[nH]c1=O [Formula 22, 3′-azido-3′-deoxythymidine, reference compound] | < 4.00 | 8.00 | BT and NH4ST<AZT and ST<HPA-23 |  |  |  | 
(ArgH^+)m(H^+)4-mST, where m=1-4 [(ARGH^+)nH^+(4−n)ST] |  |  |  | 4.85 | 6.74 | 6.00 | 
(Me4N)4W10O32 [Formula 19] |  |  |  | 5.00 | 5.22 |  | 
(NH4)4W10O32 [Formula 18] |  |  |  | 4.62 | < 5.00 | 6.24 | 
(NH4)6P2W18O62 [Formula 14] |  |  |  | 6.89 | 6.48 |  | 
H3PW12O40 [Formula 2] |  |  |  | < 4.00 | 4.90 |  | 
H4SiW12O40 [Formula 3] |  |  |  | 4.58 | 5.80 | 6.77 | BT and NH4ST<AZT and ST<HPA-23
H5BW12O40 [Formula 4] |  |  |  | 5.59 | > 6.00 | 6.74 | NH4BT (least toxic)<BT and NH4ST<AZT and ST
H6P2W18O62 [Formula 13] |  |  |  | 6.85 | 6.80 |  | 
